Data set [1] can be described thus: Microsomal stability, mouse liver microsomes. Format: in vitro ADME. The conditions noted are these: mouse liver microsome. The protocol: (§1) The aqueous solubility of the compounds and metabolic stability under oxidative conditions was performed as described previously.
(Microsomes from liver hold many membrane-bound enzymes, among them those of drug oxidation.)

The next data set can be described thus: Kinetic solubility. Format: physicochemical. As to conditions: aqueous buffer, kinetic from dmso stock; spectrophotometric, pH 7.4 in HEPES buffer. The protocol:
as §1

The next data set concerns the target cKIT (Homo sapiens, UniProt P10721). Kind of data set: KIT-WT LanthaScreen binding assay (Kd). The conditions noted are these: single eight-point titrations, TR-FRET LanthaScreen Binding Assay; R^2 of fit in parentheses; read-out: Enzymatic Assay KIT (Kd). The protocol:
The TR-FRET-based LanthaScreen Binding Assay was performed to determine Kd values of synthesized derivatives against cKIT.
Subsequently, 8 µL of kinase anti-GST antibody mixture was added, followed by incubation at 4 °C for 30 min in a pre-cooled, humidified box to minimize edge effects. The reaction was initiated by adding 5 µL of tracer working solution and mixed on a Bioshake 5000 microplate shaker (Q Instruments, Jena, Germany). […] Kd values were calculated from sigmoidal dose-response curves using Scigilian Analyze software version 5.8.5.15 (Scigilian, Montreal, QC, Canada).
(In general: TR-FRET usually uses a lanthanide donor and a delayed reading to cut background.)

In data set [2] the test system is Ba/F3 cells engineered to be dependent on CSF1R. Briefly: Cell viability assay with Ba/F3-hCSF1R cells. Format: cell-based. As to conditions: for IC50: Mus musculus, BaF3, Ba/F3 cells dependent on CSF1R, with standard deviation, read-out: Cellular Assay IC50 (μM), Ba/F3 CSF1R. The protocol: (§2) Given the promising enzymatic activity of the synthesized derivatives, cellular assays were performed using Ba/F3 cells engineered to depend on constitutively active CSF1R. […] We have also previously observed a low correlation between enzymatic and cellular activities, which may arise from the enzymatic protein construct not accurately mimicking the active conformation of CSF1R in a cellular context.
(§3) Performed as reported previously.

The subject of data set [3] is Ba/F3 cells engineered to be dependent on CSF1R but added additional IL-3. Kind of data set: Cell viability assay with Ba/F3-hCSF1R cells with added IL-3. Type of data set: cell-based. The conditions noted are these: Mus musculus, BaF3; Ba/F3 CSF1R cells with additional IL-3; read-out: Cellular Assay IC50 (μM), Ba/F3 IL-3. On the procedure: as §2, §3
A further data set concerns the target CSF1R (Homo sapiens, UniProt P07333). Briefly: CSF1R enzymatic inhibitory assay (TR-FRET LANCE Ultra). Type of data set: biochemical. The conditions noted are these: single eight-point titrations, ATP 25 μM, R^2 of fit in parentheses. On the procedure:
The TR-FRET-based LANCE Ultra assay (Perkin Elmer, Waltham, MA, USA) was used to determine IC50 values for various CSF1R inhibitors. Kinase activity and inhibition in this assay was measured as previously reported. Scigilian Analyze software version 5.8.5.15 (Scigilian, Montreal, QC, Canada) was used.

The nature of the next data set: MDCK permeability assay. Format: in vitro ADME, canine. As to conditions: dog, MDCK monolayer; for Papp A→B: A–B direction; for Papp B→A: B–A direction; for efflux ratio: read-out: MDCK Ratio (Papp B–A/A–B). The protocol:
Six selected compounds were assessed for metabolic stability (clearance) in mouse liver microsomes (MLM) and human liver microsomes (HLM), and apparent permeability (Papp) using a MDCK permeability assay. […] Although currently limited by solubility and permeability, its metabolic profile provides a starting point for targeted structural modifications aimed at overcoming these challenges.

Values after ≈ are worked out from the molar mass of the structure shown.

As a reminder, the solubility (kinetic) is the concentration staying in solution when a stock, usually in DMSO, is diluted into the medium. As usually defined, the Kd is the concentration at which binding is half-saturated. By Papp A→B is commonly meant how fast a substance crosses the layer from the apical side. A high value points to ready permeation. As usually defined, the Papp B→A is how fast a substance crosses the layer from the basolateral side.

Sequence of CSF1R (P07333 20-972): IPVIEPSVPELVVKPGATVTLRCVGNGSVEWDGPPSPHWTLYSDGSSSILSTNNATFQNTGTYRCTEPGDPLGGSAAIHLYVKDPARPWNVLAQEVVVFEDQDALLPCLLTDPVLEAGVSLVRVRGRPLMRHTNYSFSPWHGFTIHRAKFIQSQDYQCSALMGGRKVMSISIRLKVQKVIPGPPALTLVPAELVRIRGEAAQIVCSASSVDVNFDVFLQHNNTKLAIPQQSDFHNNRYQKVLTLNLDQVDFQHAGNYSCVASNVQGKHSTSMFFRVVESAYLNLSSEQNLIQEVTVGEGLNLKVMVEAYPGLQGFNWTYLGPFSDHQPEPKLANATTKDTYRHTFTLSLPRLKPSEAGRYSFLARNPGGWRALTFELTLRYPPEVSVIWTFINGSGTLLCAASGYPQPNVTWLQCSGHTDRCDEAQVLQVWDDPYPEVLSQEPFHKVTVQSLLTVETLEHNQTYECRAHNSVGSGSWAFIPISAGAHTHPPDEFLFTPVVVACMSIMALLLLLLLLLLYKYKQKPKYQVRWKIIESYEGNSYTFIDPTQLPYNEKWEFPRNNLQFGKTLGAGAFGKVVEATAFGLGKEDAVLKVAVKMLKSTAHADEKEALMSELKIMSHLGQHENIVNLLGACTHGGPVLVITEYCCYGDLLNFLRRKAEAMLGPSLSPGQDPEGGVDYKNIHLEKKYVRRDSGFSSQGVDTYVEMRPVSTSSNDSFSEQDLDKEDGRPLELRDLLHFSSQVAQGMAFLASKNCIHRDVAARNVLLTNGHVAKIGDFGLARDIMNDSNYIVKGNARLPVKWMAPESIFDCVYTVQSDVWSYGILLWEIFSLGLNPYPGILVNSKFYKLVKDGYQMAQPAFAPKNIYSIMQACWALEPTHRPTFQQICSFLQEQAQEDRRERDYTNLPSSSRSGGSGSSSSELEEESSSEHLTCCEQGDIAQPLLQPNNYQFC
Sequence of cKIT (P10721 26-976): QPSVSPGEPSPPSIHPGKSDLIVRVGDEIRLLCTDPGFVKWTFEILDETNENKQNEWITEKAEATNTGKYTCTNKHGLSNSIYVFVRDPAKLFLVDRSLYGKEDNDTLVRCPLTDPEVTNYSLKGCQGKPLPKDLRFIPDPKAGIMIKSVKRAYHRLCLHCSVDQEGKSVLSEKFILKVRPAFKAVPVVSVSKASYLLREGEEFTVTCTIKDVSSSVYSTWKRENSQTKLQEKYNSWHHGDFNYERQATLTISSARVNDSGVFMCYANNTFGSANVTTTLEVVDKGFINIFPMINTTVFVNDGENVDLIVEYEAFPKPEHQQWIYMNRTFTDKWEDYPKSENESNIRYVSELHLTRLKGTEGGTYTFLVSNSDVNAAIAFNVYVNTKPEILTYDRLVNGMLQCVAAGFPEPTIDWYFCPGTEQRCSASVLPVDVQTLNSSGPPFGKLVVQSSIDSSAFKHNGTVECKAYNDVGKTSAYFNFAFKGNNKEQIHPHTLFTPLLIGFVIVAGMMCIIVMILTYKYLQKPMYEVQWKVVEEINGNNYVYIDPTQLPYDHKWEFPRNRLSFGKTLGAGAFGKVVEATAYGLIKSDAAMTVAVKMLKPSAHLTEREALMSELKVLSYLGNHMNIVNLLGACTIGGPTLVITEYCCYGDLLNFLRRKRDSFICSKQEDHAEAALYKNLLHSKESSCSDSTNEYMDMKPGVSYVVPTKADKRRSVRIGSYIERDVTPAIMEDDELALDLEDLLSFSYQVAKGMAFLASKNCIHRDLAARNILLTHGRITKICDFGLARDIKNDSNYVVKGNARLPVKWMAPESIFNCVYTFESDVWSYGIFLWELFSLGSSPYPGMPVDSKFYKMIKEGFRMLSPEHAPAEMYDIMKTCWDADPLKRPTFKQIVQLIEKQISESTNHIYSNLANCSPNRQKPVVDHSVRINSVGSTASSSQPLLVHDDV

On to `CN(Cc1ccc(NCc2ccccc2)nc1)c1ncnc2[nH]ccc12` [Compound 4a, N-((6-(Benzylamino)pyridin-3-yl)methyl)-N-methyl-7H-pyrrolo[2,3-d]pyrimidin-4-amine], for which the “MLM in vitro intrinsic clearing” value in data set [1] was 277.3 µL/min/mg. In addition, the kinetic solubility in the data set “Kinetic solubility” was determined as 20.9 µM (≈ 7.2 µg/mL). Besides, the Kd on cKIT was above 1 µM. Moreover, the “Cellular activity in Ba/F3 CSF1R cells (in words)” value in data set [2] (Ba/F3 cells dependent on constitutively active CSF1R) was “relatively high cellular activity”. Further, the IC50 in data set [2] was 1.16 ± 0.22 µM. The IC50 in data set [3] amounted to 1.39 ± 0.4 µM. Besides, the IC50 at CSF1R is 0.857 µM. In the data set “MDCK permeability assay”, the apparent permeability from apical to basolateral (Papp A→B) turned out to be 34 ×10⁻⁶ cm/s, the basolateral-to-apical permeability (Papp B→A) came out at 24.7 ×10⁻⁶ cm/s and the efflux ratio came to 0.72.
Turning to `Cc1cccc(CN(C)c2ncnc3[nH]c(-c4ccc(NCc5cccc(C)c5C)nc4)cc23)c1` [Compound 12d, 6-(6-((2,3-Dimethylbenzyl)amino)pyridin-3-yl)-N-methyl-N-(3-methylbenzyl)-7H-pyrrolo[2,3-d]pyrimidin-4-amine], on cKIT, the Kd was above 1 µM. Besides, the IC50 on CSF1R is above 1 µM.
On to `COc1ccc(CNc2ccc(-c3cc4c(N(C)Cc5cccc(C)c5)ncnc4[nH]3)cn2)cc1` [Compound 12e, 6-(6-((4-Methoxybenzyl)amino)pyridin-3-yl)-N-methyl-N-(3-methylbenzyl)-7H-pyrrolo[2,3-d]pyrimidin-4-amine], for which, on cKIT, the Kd was above 1 µM. Also, the IC50 in data set [2] came out at 6.24 µM; in data set [3], 9.25 µM; on CSF1R, 0.0105 µM.
Turning to `Cc1cccc(CN(C)c2ncnc3[nH]cc(-c4ccc(NCc5cccnc5)nc4)c23)c1` [Compound 8, N-Methyl-N-(3-methylbenzyl)-5-(6-((pyridin-3-ylmethyl)amino)pyridin-3-yl)-7H-pyrrolo[2,3-d]pyrimidin-4-amine], the “MLM in vitro intrinsic clearing” value in data set [1] came to 1540.3 µL/min/mg. The compound also showed a solubility (kinetic) in the data set “Kinetic solubility” of 70.4 µM (≈ 30.7 µg/mL). Besides, the Kd on cKIT stood at 0.397 µM. Also, the IC50 in data set [2] was 8.46 ± 0.89 µM; in data set [3], above 10 µM; on CSF1R it was above 1 µM. The Papp A→B in the data set “MDCK permeability assay” is 15.9 ×10⁻⁶ cm/s. In the data set “MDCK permeability assay”, this compound showed a Papp B→A of 4.4 ×10⁻⁶ cm/s. The efflux ratio in “MDCK permeability assay” was 0.27.
In the case of `Cc1cccc(CN(C)c2ncnc3[nH]c(-c4ccc(NCc5ccccc5)nc4)cc23)c1` [Compound 14a, 6-(6-(Benzylamino)pyridin-3-yl)-N-methyl-N-(3-methylbenzyl)-7H-pyrrolo[2,3-d]pyrimidin-4-amine], at cKIT, the Kd was above 1 µM. Further, on CSF1R, the IC50 came to 0.006 µM.
`CN(Cc1ccc(NCc2ccccn2)nc1)c1ncnc2[nH]ccc12` [Compound 4b, N-Methyl-N-((6-((pyridin-2-ylmethyl)amino)pyridin-3-yl)methyl)-7H-pyrrolo[2,3-d]pyrimidin-4-amine]: in data set [1], the “MLM in vitro intrinsic clearing” value came to 101.9 µL/min/mg. In “Kinetic solubility”, the solubility (kinetic) was 441 µM (≈ 152 µg/mL). Further, the Kd at cKIT was above 1 µM. The values for the IC50 (in data set [2]; in data set [3]; on CSF1R) were above 10 µM, above 10 µM and above 1 µM, respectively. Besides, the Papp A→B in the data set “MDCK permeability assay” was 42 ×10⁻⁶ cm/s. Moreover, in the data set “MDCK permeability assay”, the Papp B→A was found to be 28.8 ×10⁻⁶ cm/s. Moreover, the efflux ratio in the data set “MDCK permeability assay” was 0.69.
`CN(Cc1ccc(NCc2ccc(C(F)(F)F)nc2)nc1)c1ncnc2[nH]ccc12` [Compound 4c, N-Methyl-N-((6-(((6-(trifluoromethyl)pyridin-3-yl)methyl)amino)pyridin-3-yl)methyl)-7H-pyrrolo[2,3-d]pyrimidin-4-amine]: the “MLM in vitro intrinsic clearing” value in data set [1] is 150.7 µL/min/mg. In “Kinetic solubility”, the solubility (kinetic) came out at 20.9 µM (≈ 8.64 µg/mL). The equilibrium dissociation constant (Kd) on cKIT was above 1 µM. Moreover, the IC50 in data set [2] was determined as 9.96 ± 0.02 µM. The IC50 in data set [3] is above 10 µM. Moreover, the IC50 on CSF1R was above 1 µM. In the data set “MDCK permeability assay”, the Papp A→B was found to be 18.3 ×10⁻⁶ cm/s, the apparent permeability from basolateral to apical (Papp B→A) was 10 ×10⁻⁶ cm/s and the efflux ratio was found to be 0.55.
`FC(F)(F)c1ccc(CNc2ccc(Cc3c[nH]c4ncc(Cl)cc34)cn2)cn1` [Pexidartinib, reference compound] registered a kinetic solubility in “Kinetic solubility” of 20.5 µM (≈ 8.57 µg/mL). The IC50 in data set [2] amounted to 0.064 ± 0.04 µM. Besides, the IC50 in data set [3] was determined as 6.54 ± 0.61 µM. Moreover, in “MDCK permeability assay”, the Papp A→B amounted to 4.5 ×10⁻⁶ cm/s and the Papp B→A turned out to be 1.5 ×10⁻⁶ cm/s.

For the origin of these results see publication PMC12196264, “Design and Synthesis of Pyridine-Based Pyrrolo[2,3-d]pyrimidine Analogs as CSF1R Inhibitors: Molecular Hybridization and Scaffold Hopping Approach” (Pharmaceuticals, 2025).
